# pIC50: −log10 of the molar value.
# Target: Human TRPA1 (Homo sapiens, UniProt O75762)
# Test: Assay 1: In vitro cellular testing of TRPA1 modulation (CHO-TREx, Fluo-3 calcium fluorescence, AITC agonist)
# Format: cell-based
# Parameters: expressed in transfected cells; host or cells: CHO-TREx cells (Invitrogen), vector pcDNA4/TO
# Conditions: CHO-TREx cells expressing human TRPA1; Fluo-3 fluorescence (FLIPR/Tetra); agonist 15 μM allyl isothiocyanate (AITC); 30 minute antagonist incubation
# Procedure, shortened: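 Tetracycline-induced CHO-TREx cells stably expressing human TRPA1, loaded with 4 μM Fluo-3 AM, preincubated 30 min with compound (serial dilution typically from 10 μM, three-fold steps) in HEPES saline pH 7.4. Fluorescence change over 3 min after 15 μM AITC; IC50 from Hill fit versus no-antagonist and 10 μM ruthenium red controls.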
# Chain of Human TRPA1 (O75762 whole entry): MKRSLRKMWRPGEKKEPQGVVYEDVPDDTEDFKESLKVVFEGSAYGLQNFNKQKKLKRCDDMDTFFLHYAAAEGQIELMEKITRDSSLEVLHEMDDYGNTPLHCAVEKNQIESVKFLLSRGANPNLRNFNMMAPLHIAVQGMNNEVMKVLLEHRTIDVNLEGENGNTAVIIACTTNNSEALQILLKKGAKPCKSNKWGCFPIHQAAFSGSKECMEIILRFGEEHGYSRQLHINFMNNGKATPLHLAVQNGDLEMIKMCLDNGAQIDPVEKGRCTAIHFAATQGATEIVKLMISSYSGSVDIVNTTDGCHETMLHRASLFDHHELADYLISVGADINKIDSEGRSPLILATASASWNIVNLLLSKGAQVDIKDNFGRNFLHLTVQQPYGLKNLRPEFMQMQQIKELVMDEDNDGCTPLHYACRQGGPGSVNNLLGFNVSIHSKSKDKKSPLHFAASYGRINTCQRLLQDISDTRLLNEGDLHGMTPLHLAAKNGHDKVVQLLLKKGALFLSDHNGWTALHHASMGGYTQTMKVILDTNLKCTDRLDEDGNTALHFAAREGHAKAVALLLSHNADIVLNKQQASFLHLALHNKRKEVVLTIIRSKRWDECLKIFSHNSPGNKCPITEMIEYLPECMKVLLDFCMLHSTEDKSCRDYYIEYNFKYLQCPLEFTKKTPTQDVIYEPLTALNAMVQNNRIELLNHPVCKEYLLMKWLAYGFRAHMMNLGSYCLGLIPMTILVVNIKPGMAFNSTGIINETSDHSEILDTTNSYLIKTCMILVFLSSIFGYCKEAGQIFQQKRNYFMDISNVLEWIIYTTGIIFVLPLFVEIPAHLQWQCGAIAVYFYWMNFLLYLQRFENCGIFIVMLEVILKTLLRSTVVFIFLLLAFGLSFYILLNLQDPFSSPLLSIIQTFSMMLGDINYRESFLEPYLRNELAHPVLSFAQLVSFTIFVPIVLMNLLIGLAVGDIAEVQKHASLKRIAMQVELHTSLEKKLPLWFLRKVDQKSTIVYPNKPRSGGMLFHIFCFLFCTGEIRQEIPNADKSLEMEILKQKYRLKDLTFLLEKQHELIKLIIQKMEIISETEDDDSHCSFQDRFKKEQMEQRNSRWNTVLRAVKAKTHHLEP
row,pIC50,SMILES
1,5.60,"CC(Nc1cc(CNC(=O)[C@@H]2CC(F)(F)CN2S(=O)(=O)c2ccc(F)cc2)cc(-c2ccc(C(F)(F)F)cc2)n1)c1ccncc1 (stereo partly drawn) [Example 401, 4,4-Difluoro-1-[(4-fluorophenyl)sulfonyl]-N-({2-[(1-pyridin-4-ylethyl)amino]-6-[4-(trifluoromethyl)phenyl]pyridin-4-yl}methyl)-L-prolinamide]"
2,6.23,"CC(Nc1cc(CNC(=O)[C@@H]2CCCN2S(=O)(=O)c2ccc(F)cc2)cc(-c2ccc(C(F)(F)F)cc2)n1)c1ccncc1 (stereo partly drawn) [Example 402, 1-[(4-Fluorophenyl)sulfonyl]-N-({2-[(1-pyridin-4-ylethyl)amino]-6-[4-(trifluoromethyl)phenyl]pyridin-4-yl}methyl)-L-prolinamide]"
3,6.33,"CC(Nc1cc(CNC(=O)[C@@H]2CCCN2S(=O)(=O)c2ccc(Cl)s2)cc(-c2ccc(C(F)(F)F)cc2)n1)c1ccncc1 (stereo partly drawn) [Example 403, 1-[(5-Chlorothiophen-2-yl)sulfonyl]-N-({2-[(1-pyridin-4-ylethyl)amino]-6-[4-(trifluoromethyl)phenyl]pyridin-4-yl}methyl)-L-prolinamide]"
4,5.72,"CC(Nc1cc(CNC(=O)[C@@H]2C=CCN2S(=O)(=O)c2ccc(Cl)s2)cc(-c2ccc(C(F)(F)F)cc2)n1)c1ccncc1 (stereo partly drawn) [Example 404, (2S)-1-[(5-Chlorothiophen-2-yl)sulfonyl]-N-({2-[(1-pyridin-4-ylethyl)amino]-6-[4-(trifluoromethyl)phenyl]pyridin-4-yl}methyl)-2,5-dihydro-1H-pyrrole-2-carboxamide]"
5,6.32,"CC(Nc1cc(CNC(=O)[C@@H]2CCCN2S(=O)(=O)c2ccc(Cl)s2)cc(-c2ccc(C(F)(F)F)cc2)n1)c1cccnc1 (stereo partly drawn) [Example 405, 1-[(5-Chlorothiophen-2-yl)sulfonyl]-N-({2-[(1-pyridin-3-ylethyl)amino]-6-[4-(trifluoromethyl)phenyl]pyridin-4-yl}methyl)-L-prolinamide]"
6,6.08,"CC(Nc1cc(CNC(=O)[C@@H]2C=CCN2S(=O)(=O)c2ccc(F)cc2)cc(-c2ccc(C(F)(F)F)cc2)n1)c1ccccc1 (stereo partly drawn) [Example 406, (2S)-1-[(4-Fluorophenyl)sulfonyl]-N-({2-[(1-phenylethyl)amino]-6-[4-(trifluoromethyl)phenyl]pyridin-4-yl}methyl)-2,5-dihydro-1H-pyrrole-2-carboxamide]"
7,6.73,"CC(Nc1cc(CNC(=O)[C@@H]2C=CCN2S(=O)(=O)c2ccc(Cl)s2)cc(-c2ccc(C(F)(F)F)cc2)n1)c1ccccc1 (stereo partly drawn) [Example 407, (2S)-1-[(5-Chlorothiophen-2-yl)sulfonyl]-N-({2-[(1-phenylethyl)amino]-6-[4-(trifluoromethyl)phenyl]pyridin-4-yl}methyl)-2,5-dihydro-1H-pyrrole-2-carboxamide]"
8,7.27,"CC(Nc1cc(CNC(=O)[C@@H]2CCCN2S(=O)(=O)c2ccc(F)cc2)cc(-c2ccc(C(F)(F)F)cc2)n1)c1ccccn1 (stereo partly drawn) [Example 408, 1-[(4-Fluorophenyl)sulfonyl]-N-({2-[(1-pyridin-2-ylethyl)amino]-6-[4-(trifluoromethyl)phenyl]pyridin-4-yl}methyl)-L-prolinamide]"
9,7.19,"CC(Nc1cc(CNC(=O)[C@@H]2CCCN2S(=O)(=O)c2ccc(Cl)s2)cc(-c2ccc(C(F)(F)F)cc2)n1)c1ccccn1 (stereo partly drawn) [Example 409, 1-[(5-Chlorothiophen-2-yl)sulfonyl]-N-({2-[(1-pyridin-2-ylethyl)amino]-6-[4-(trifluoromethyl)phenyl]pyridin-4-yl}methyl)-L-prolinamide]"
10,5.90,"CC(Nc1cc(CNC(=O)[C@@H]2CC(F)(F)CN2S(=O)(=O)c2ccc(F)cc2)cc(-c2ccc(C(F)(F)F)cc2)n1)c1ccccc1 (stereo partly drawn) [Example 410, 4,4-Difluoro-1-[(4-fluorophenyl)sulfonyl]-N-({2-[(1-phenylethyl)amino]-6-[4-(trifluoromethyl)phenyl]pyridin-4-yl}methyl)-L-prolinamide]"
11,5.85,"CC(Nc1cc(CNC(=O)[C@@H]2CC(F)(F)CN2S(=O)(=O)c2ccc(Cl)s2)cc(-c2ccc(C(F)(F)F)cc2)n1)c1ccccc1 (stereo partly drawn) [Example 411, 1-[(5-Chlorothiophen-2-yl)sulfonyl]-4,4-difluoro-N-({2-[(1-phenylethyl)amino]-6-[4-(trifluoromethyl)phenyl]pyridin-4-yl}methyl)-L-prolinamide]"
12,5.90,"CC(Nc1cc(CNC(=O)[C@@H]2C=CCN2S(=O)(=O)c2ccc(F)cc2)cc(-c2ccc(C(F)(F)F)cc2)n1)c1ccncc1 (stereo partly drawn) [Example 412, (2S)-1-[(4-Fluorophenyl)sulfonyl]-N-({2-[(1-pyridin-4-ylethyl)amino]-6-[4-(trifluoromethyl)phenyl]pyridin-4-yl}methyl)-2,5-dihydro-1H-pyrrole-2-carboxamide]"
13,6.57,"CC(Nc1cc(CNC(=O)[C@@H]2CCCN2S(=O)(=O)c2ccc(F)cc2)cc(-c2ccc(C(F)(F)F)cc2)n1)c1ccccc1 (stereo partly drawn) [Example 413, 1-[(4-Fluorophenyl)sulfonyl]-N-({2-[(1-phenylethyl)amino]-6-[4-(trifluoromethyl)phenyl]pyridin-4-yl}methyl)-L-prolinamide]"
14,7.24,"CC(Nc1cc(CNC(=O)[C@@H]2CCCN2S(=O)(=O)c2ccc(Cl)s2)cc(-c2ccc(C(F)(F)F)cc2)n1)c1ccccc1 (stereo partly drawn) [Example 414, 1-[(5-Chlorothiophen-2-yl)sulfonyl]-N-({2-[(1-phenylethyl)amino]-6-[4-(trifluoromethyl)phenyl]pyridin-4-yl}methyl)-L-prolinamide]"
15,6.24,"CC(Nc1cc(CNC(=O)[C@@H]2CC(F)(F)CN2S(=O)(=O)c2ccc(Cl)s2)cc(-c2ccc(C(F)(F)F)cc2)n1)c1ccccn1 (stereo partly drawn) [Example 415, 1-[(5-Chlorothiophen-2-yl)sulfonyl]-4,4-difluoro-N-({2-[(1-pyridin-2-ylethyl)amino]-6-[4-(trifluoromethyl)phenyl]pyridin-4-yl}methyl)-L-prolinamide]"
16,5.98,"CC(Nc1cc(CNC(=O)[C@@H]2CC(F)(F)CN2S(=O)(=O)c2ccc(F)cc2)cc(-c2ccc(C(F)(F)F)cc2)n1)c1ccccn1 (stereo partly drawn) [Example 416, 4,4-Difluoro-1-[(4-fluorophenyl)sulfonyl]-N-({2-[(1-pyridin-2-ylethyl)amino]-6-[4-(trifluoromethyl)phenyl]pyridin-4-yl}methyl)-L-prolinamide]"
17,7.09,"CC1CCCN1c1cc(CNC(=O)[C@@H]2C=CCN2S(=O)(=O)c2ccc(Cl)s2)cc(-c2ccc(C(F)(F)F)cc2)n1 (stereo partly drawn) [Example 417, (2S)-1-[(5-Chlorothiophen-2-yl)sulfonyl]-N-({2-(2-methylpyrrolidin-1-yl)-6-[4-(trifluoromethyl)phenyl]pyridin-4-yl}methyl)-2,5-dihydro-1H-pyrrole-2-carboxamide]"

# Source: patent publication US8614201B2 (Janssen Pharmaceutica NV, priority 2009, dated 2013)
